Earlier results as cited in paper PMC6385854, “Structural insights reveal a recognition feature for tailoring hydrocarbon stapled-peptides against the eukaryotic translation initiation factor 4E protein” (Chemical Science, 2019).

Test system: eIF4E
Conditions: small molecule inhibitor of the eIF4E/eIF4G interaction; cited from earlier work
From the text: We have previously used structure-based rational design and optimization strategies to develop the first generation of hydrocarbon stapled-peptides against eIF4E.[20] These are the only compounds currently reported in the literature that are able to bind to the protein-binding interface of eIF4E with nanomolar affinity. […] Moreover, it was recently shown that 4EGI-1 binds to a non-canonical site on eIF4E and allosterically regulates the binding prop ... || The previously optimized 12mer stapled-peptide (sTIP-04: ^1KKRYSR*QLL*L^12)[20] (Fig. 1) was used as a template for the derivation of two different i, i + 4 hydrocarbon stapled-peptides: (i) (sTIP-05: ^1KKRYSR*QLL*F^12) with an L12F substitution at the C-terminus and, (ii) (sTIP-06: ^1RIIYSR*QLL*L^12) with an “RII^3” substitution at the N-terminus, based on the 4EBP protein epitope.[12] These derivatives were designed to incorporate different chemical features with the anticipation to induce favorable cellular activity. Both peptides were synthesized and their binding affinity for eIF4E was de ...

Compound	Affinity for eIF4E
O=C(O)C(Cc1ccccc1[N+](=O)[O-])=NNc1nc(-c2ccc(Cl)c(Cl)c2)cs1 (mixture of isomers) [Peptide 4EGI-1, 4EGI-1]	micromolar range
O=C(O)c1ccc(N2C(=O)/C(=C\c3ccc(-c4ccc([N+](=O)[O-])cc4)o3)C=C2c2ccccc2)cc1 [Peptide 4E1RCat, 4E1RCat]	micromolar range
